In patent publication US8394763B2, “Cyclic undecapeptides and derivatives as multiple sclerosis therapies” (Oregon Health & Science University, priority 2007, dated 2013):

Assays:
lymph node cells = assay: Proliferation of lymph node cells to MOG 35-55 peptide, [3H]thymidine incorporation; format: cell-based, C57BL/6 (B6) mice; details: 25 μg/ml MOG 35-55 peptide; equimolar concentrations of both compounds; vs MOG 35-55 peptide alone
[1] = tested on: Splenocytes or lymphocytes; assay: Proliferation of splenocytes or lymphocytes from treated immunized mice in response to MOG 35-55 peptide; format: in vivo, B6 mice; details: mice treated with 20 mg/kg/day, compared with vehicle
[2] = tested on: EAE in C57BL/6 (B6) female mice; assay: Clinical course of EAE, treatment begun prior to disease onset (day 10); format: in vivo, C57BL/6 (B6) mice; details: for mean total EAE score: vehicle control 99
Procedure: EAE was induced in C57BL/6 (B6) female mice by immunization with 200 μg of MOG 35-55 peptide in complete Freund's adjuvant containing 400 μg of Mycobacterium tuberculosis per mouse by subcutaneous injection. Pertussis toxin was administered intraperitoneally at day 0 (25 ng per mouse) and day 2 (66 ng per mouse) after immunization. […] Mice were examined for signs of EAE daily, blinded to treatment status. EAE was scored by using a 9 point scale (0, no paralysis; 1, limp tail with minimal hind limb weakness; 2, mild hind limb weakness; 3, moderate hind limb weakness; 4, moderately severe hind limb weakness; 5, severe hind limb weakness; 6, complete hind limb paralysis; 7, hind limb paralysis with mild forelimb weakness; 8, hind limb paralysis with moderate forelimb weakness; and 9, hind limb paralysis with severe forelimb weakness).

EAE in B6 mice [3] = assay: Reversal of paralysis in EAE, treatment begun day 15 after onset; format: in vivo; details: 20 mg/kg daily from day 15
Source text: EAE was induced in B6 mice as described in Example 2. Mice developed signs of EAE 10-12 days following immunization with MOG 35-55 peptide. […] Mice were scored daily for EAE, blinded to treatment status.

Mice with induced EAE [4] = assay: White matter tissue damage in thoracic spinal cord of EAE mice (toluidine blue); format: in vivo; details: vs vehicle
Procedure: Mice with induced EAE were deeply anesthetized with isoflurane, heparinized, and perfused with 5% gluteraldehyde, and spinal cords were dissected as described in Masliah et al., Am. J. Pathol. 142:871-882, 1993. Tissue samples were post-fixed with 1% osmium. Semithin sections (0.5 μm) were stained with toluidine blue and photographed at 25× magnification. The percentage of the spinal cord showing damage was determined in the ventrolateral and dorsal thoracic cord. Photomontages (final magnification 100×) of the entire spinal cord and areas containing damaged fibers were measured using a SummaSketch 111 (Summagraphics, Fairfield, Conn.) digitizing tablet and BIOQUANT Classic 95 software (R & M Biometrics, Nashville, Tenn.). Measurements were taken of the total area (damaged and nondamaged) and the cumulative percentage area of lesions was calculated.

Mice with induced EAE [5] = assay: Phosphorylated neurofilament (NF-P) immunostaining of spinal cord of EAE mice, dose groups; format: in vivo; details: vehicle 24%
Procedure: Mice with induced EAE were perfused with 4% paraformaldehyde and 1- to 2-mm lengths of spinal cord were processed for sectioning as described in Masliah et al. Spinal cord sections were blocked and stained with anti-phosphorylated NF, SMI312 (Sternberger Monoclonals, Lutherville, Md.). Following incubation in goat anti-mouse secondary antibody and incubation in mouse peroxidase-antiperoxidase, immunoreactivity was visualized with 0.05% diaminobenzidine tetrahydrochloride/0.01% hydrogen peroxide, examined by light microscopy and photographed and analyzed as described for assessing white matter tissue damage. Statistical significance was determined by using one-way ANOVA followed by Newman-Keuls multiple comparisons tests (WINKS 4.62 professional edition; Texasoft, Dallas, Tex.); significance was defined as p<0.05.

EAE in B6 mice [6] = assay: Repair of injured axons: NF-P immunostaining at day 40, treatment from day 15; format: in vivo
Source text: B6 mice were immunized with MOG 35-55 peptide as described in Example 2. […] The two treatment groups were perfused on day 40 post-immunization and sections of their spinal cords were immunostained for NF-P.

EAE in C57BL/6 mice = assay: CD4 and CD11b immunostaining of spinal cord of EAE mice; format: in vivo; details: 20 mg/kg/day s.c. from day 15, day 34 to 40
Source text: EAE was induced in C57BL/6 mice by immunization with […] as described in Example 2. […] Mice received therapy by daily subcutaneous injection. Mice were euthanized at day 34 to 40 post-immunization by perfusion with 4% paraformaldehyde and spinal cords were removed for immunohistochemical staining and quantitative analysis. Spinal cord sections were stained with anti-CD4 (lymphocyte) or anti-CD11b (monocyte/macrophage lineage) antibodies and quantified following image capture on a laser scanning confocal microscope.

CypA = CypA (Homo sapiens, UniProt P62937); details: see U.S. Pat. No. 6,927,208 and WO 2006/038088; cited from earlier work
Chain of CypA (P62937 whole entry, species assumed): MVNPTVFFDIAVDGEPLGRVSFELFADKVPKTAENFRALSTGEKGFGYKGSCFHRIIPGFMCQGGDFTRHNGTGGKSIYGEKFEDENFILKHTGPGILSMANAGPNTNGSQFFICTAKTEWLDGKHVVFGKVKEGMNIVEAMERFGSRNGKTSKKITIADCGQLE

[7] = 20 mg/kg, vs vehicle treated mice

Substance: Cyclo[L-alanyl-D-alanyl-N-methyl-L-leucyl-N-methyl-L-leucyl-N-methyl-L-valyl-(2S,3R,4R,6E)-3-hydroxy-4-methyl-2-methylamino-6-octenoyl-(2S)-2-aminobutanoyl-N-methyl-D-alanyl-N-ethyl-L-valyl-L-valyl-N-methyl-L-leucyl] [[D-MeAla]^3-[EtVal]^4-CsA]
- proliferative capacity of lymph node cells, MOG 35-55 peptide stimulated (lymph node cells): did not significantly alter
- proliferation of splenocytes or lymphocytes in response to MOG 35-55 peptide [1]: no differences in proliferation
- mean total EAE score ([2]; 1 mg/kg/day from day 10): 53
- mean total EAE score ([2]; 5 mg/kg/day from day 10): 25
- onset of disease [2, 7]: significantly delayed
- severity of peak disease [2, 7]: reduced
- mean total EAE score ([2]; 20 mg/kg/day from day 10): 12
- recovery over the course of the experiment ([2]; all doses (1, 5, 20 mg/kg), in contrast to vehicle): completely recovered
- clinical course of paralysis (EAE in B6 mice [3]): progressive improvement, eventually returning to nearly normal
- mean total EAE score (EAE in B6 mice [3]; vehicle 116, p=0.0006): 75
- reduction of tissue damage, dorsal thoracic cord (Mice with induced EAE [4]; 1 mg/kg/day): 50%
- reduction of tissue damage, ventrolateral thoracic cord (Mice with induced EAE [4]; 1 mg/kg/day): 40%
- reduction of tissue damage, dorsal thoracic cord (Mice with induced EAE [4]; 5 mg/kg/day): 69%
- reduction of tissue damage, ventrolateral thoracic cord (Mice with induced EAE [4]; 5 mg/kg/day): 76%
- reduction of tissue damage, dorsal thoracic cord (Mice with induced EAE [4]; 20 mg/kg/day): 81%
- reduction of tissue damage, ventrolateral thoracic cord (Mice with induced EAE [4]; 20 mg/kg/day): 86%
- mean area of loss of NF-P staining, lateral/ventral thoracic spinal cord (Mice with induced EAE [5]; 1 mg/kg): 14.5%
- mean area of loss of NF-P staining, lateral/ventral thoracic spinal cord (Mice with induced EAE [5]; 5 mg/kg): 3%
- mean area of loss of NF-P staining, lateral/ventral thoracic spinal cord (Mice with induced EAE [5]; 20 mg/kg): 1.5%
- reduced NF-P staining, share of dorsal spinal cord (EAE in B6 mice [6]; 20 mg/kg daily from day 15, read at day 40, day 15 untreated 9%, vehicle 4.7%): 1.7%
- reduced NF-P staining, share of ventrolateral spinal cord (EAE in B6 mice [6]; 20 mg/kg daily from day 15, read at day 40, day 15 untreated 14%, vehicle 20%): 7%
- improvement in expression of NF-P within axons (EAE in B6 mice [6]; 20 mg/kg daily, day 40 vs day 15): ≥ 50%
- percentage area stained by anti-CD4, spinal cord (EAE in C57BL/6 mice; no treatment 0.86%, vehicle 0.74%, not significant): 0.61%
- CD11b cells, percentage of white matter (EAE in C57BL/6 mice; no treatment 6.64%, vehicle 5.83%, p=0.05 vs vehicle): 3.94%

Substance: [EtPhe(4-CH2PO(OMe)2)]^4-CsA
- apparent Ki for CypA activity compared with CsA (CypA): less than the Ki of CsA
